Results on 1 compound are retold here after PMC9946934, “Reconstitution of human pyroptotic cell death in Saccharomyces cerevisiae” (Scientific Reports, 2023).

Holding throughout (assay type): cell-based, Saccharomyces cerevisiae
Assay [1] deals with T1, caspase-3 (Homo sapiens, UniProt P42574).
T1 construct: gene CASP3; active caspase-3 fused to β-galactosidase (caspase-3–LacZ)
T1 sequence (P42574 29-175): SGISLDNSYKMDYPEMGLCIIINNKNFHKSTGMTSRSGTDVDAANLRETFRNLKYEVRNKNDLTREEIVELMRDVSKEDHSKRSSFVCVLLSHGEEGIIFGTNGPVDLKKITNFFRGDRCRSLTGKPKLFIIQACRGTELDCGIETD
T1 sequence (P42574 176-277): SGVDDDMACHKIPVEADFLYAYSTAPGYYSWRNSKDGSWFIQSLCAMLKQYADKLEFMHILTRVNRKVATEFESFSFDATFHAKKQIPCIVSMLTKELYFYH
Kind of assay: growth rescue of S. cerevisiae expressing active human caspase-3.

For assay [2], the target named is T2, caspase-1 (Homo sapiens, UniProt P29466).
T2 construct: gene CASP1
T2 sequence (P29466 1-404): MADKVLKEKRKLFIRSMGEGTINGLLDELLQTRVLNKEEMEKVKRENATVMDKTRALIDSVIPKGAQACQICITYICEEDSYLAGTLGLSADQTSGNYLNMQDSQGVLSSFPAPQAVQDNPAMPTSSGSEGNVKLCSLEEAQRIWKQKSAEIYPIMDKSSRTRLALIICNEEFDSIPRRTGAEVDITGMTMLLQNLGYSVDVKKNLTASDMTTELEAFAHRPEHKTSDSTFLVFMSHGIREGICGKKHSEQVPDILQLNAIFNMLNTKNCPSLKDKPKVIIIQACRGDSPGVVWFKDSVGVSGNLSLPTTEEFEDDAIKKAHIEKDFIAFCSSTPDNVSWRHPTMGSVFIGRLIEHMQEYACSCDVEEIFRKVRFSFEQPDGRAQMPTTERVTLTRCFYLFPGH
Briefly: growth rescue of S. cerevisiae expressing human caspase-1.

Assay [3] concerns the target T3, caspase-8 (Homo sapiens, UniProt Q14790).
T3 construct: gene CASP8
Briefly: growth rescue of S. cerevisiae expressing human caspase-8. From the text: growth rescue of S. cerevisiae expressing human caspase-8 on caspase-8 | higher concentrations of QVD were needed to restore the growth rate of yeast expressing caspase-8

Molecules are shown by their SMILES.

T3 sequence (Q14790 whole entry): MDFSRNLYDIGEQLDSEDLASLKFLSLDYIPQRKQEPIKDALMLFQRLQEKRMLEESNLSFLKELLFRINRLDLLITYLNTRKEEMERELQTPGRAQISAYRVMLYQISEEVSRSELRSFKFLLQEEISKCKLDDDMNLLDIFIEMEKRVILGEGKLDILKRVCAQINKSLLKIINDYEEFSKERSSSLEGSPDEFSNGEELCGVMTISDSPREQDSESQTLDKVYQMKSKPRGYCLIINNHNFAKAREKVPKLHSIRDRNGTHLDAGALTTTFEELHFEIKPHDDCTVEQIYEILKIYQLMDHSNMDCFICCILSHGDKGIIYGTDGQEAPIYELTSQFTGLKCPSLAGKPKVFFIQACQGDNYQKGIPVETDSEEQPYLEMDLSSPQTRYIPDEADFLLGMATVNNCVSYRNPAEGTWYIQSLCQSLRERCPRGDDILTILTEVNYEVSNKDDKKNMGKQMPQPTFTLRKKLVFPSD

With `CC(C)[C@H](NC(=O)c1ccc2ccccc2n1)C(=O)N[C@@H](CC(=O)O)C(=O)COc1c(F)cccc1F` [QVD, Q-VD-OPh], the 50% inhibitory concentration (IC50) in assay [1] is 1.7 µM; in assay [2], 21.4 µM; in assay [3], 30 µM.
